Measured values published in US20260262643A1, “HERBICIDAL BENZOXAZINES” (FMC CORPORATION, priority 2022, published 2026).

How the values were obtained:
blackgrass = experiment: Test A postemergence; assay type: in vivo, Alopecurus myosuroides; conditions: 1000 g ai/ha, Postemergence; 0 to 100 scale
Method in brief: (§1)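 Visual injury ratings on a 0–100 scale (100 = complete control) versus untreated controls, taken 10 days after treatment in greenhouse. Preemergence: directed soil spray onto seeded loam/sand. Postemergence: foliar application at one- to two-leaf stage, plants 2–10 cm. Formulation: non-phytotoxic solvent plus surfactant.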

rice = experiment: Test B flooded paddy test; assay type: in vivo, Oryza sativa; conditions: 250 g ai/ha, Flood, 13 days, 0 to 100 scale (0 no effect, 100 complete control)
Method in brief: (§2)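 2-leaf stage; pots flooded 3 cm over soil; compound dosed into paddy water; depth kept constant. Greenhouse, 13 d. Visual rating vs controls, 0 (no effect)–100 (complete control). Dash = no result.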

Pigweed, Redroot [1] = experiment: Test A postemergence; assay type: in vivo, Amaranthus retroflexus; conditions: 1000 g ai/ha, Postemergence; 0 to 100 scale
From the text: (§3) Seeds of plant species selected from barnyardgrass (Echinochloa crusgalli), blackgrass (Alopecurus myosuroides), corn (Zea mays), foxtail, giant (giant foxtail, Setaria faberi), goosegrass (Eleusine indica), kochia (Bassia scoparia), oat, wild (wild oat, Avena fatua), pigweed, palmer (palmer amaranth, palmer pigweed, Amaranthus palmeri), Pigweed, Redroot (redroot pigweed, Amaranthus retroflexus), ragweed (common ragweed, Ambrosia artemisiifolia), ryegrass, Italian (italian ryegrass, Lolium multiflorum), soybean (Glycine max), and wheat (Triticum aestivum) were planted into a blend of loam soil and sand and treated preemergence with a directed soil spray using test chemicals formulated in a non-phytotoxic solvent mixture which included a surfactant. At the same time, plants selected from these crops and weed species and also galium (catchweed bedstraw, Galium aparine) and horseweed (Erigeron canadensis) were planted in pots containing the same blend of loam soil and sand and treated with postemergence applications of test chemicals formulated in the same manner. Plants ranged in height from 2 to 10 cm and were in the one- to two-leaf stage for the postemergence treatment. Treated plants and untreated controls were maintained in a greenhouse for 10 days, after which time all treated plants were compared to untreated controls and visually evaluated for injury. Plant response ratings, summarized in Table A, are based on a 0 to 100 scale where 0 is no effect and 100 is complete control. A dash (-) response means no test result.

ryegrass, Italian [2] = experiment: Test A preemergence; assay type: in vivo, Lolium multiflorum; conditions: 1000 g ai/ha, 0 to 100 scale (0 no effect, 100 complete control), 10 days
Method in brief: as §1

barnyardgrass [3] = experiment: Test A postemergence; assay type: in vivo, Echinochloa crusgalli; conditions: 1000 g ai/ha, Postemergence; 0 to 100 scale
Method in brief: as §1

wheat = experiment: Test A postemergence; assay type: in vivo, Triticum aestivum; conditions: 1000 g ai/ha, Postemergence; 0 to 100 scale
Method in brief: as §1

ragweed [4] = experiment: Test A preemergence; assay type: in vivo, Ambrosia artemisiifolia; conditions: 1000 g ai/ha, 0 to 100 scale (0 no effect, 100 complete control), 10 days
Method in brief: as §1

Pigweed, Redroot [5] = experiment: Test A preemergence; assay type: in vivo, Amaranthus retroflexus; conditions: 1000 g ai/ha, 0 to 100 scale (0 no effect, 100 complete control), 10 days
From the text: as §3

foxtail, giant [6] = experiment: Test A preemergence; assay type: in vivo, Setaria faberi; conditions: 1000 g ai/ha, 0 to 100 scale (0 no effect, 100 complete control), 10 days
Method in brief: as §1

foxtail, giant [7] = experiment: Test A postemergence; assay type: in vivo, Setaria faberi; conditions: 1000 g ai/ha, Postemergence; 0 to 100 scale
Method in brief: as §1

ducksalad = experiment: Test B flooded paddy test; assay type: in vivo, Heteranthera limosa; conditions: 250 g ai/ha, Flood, 13 days, 0 to 100 scale (0 no effect, 100 complete control)
Method in brief: as §2

ragweed [8] = experiment: Test A postemergence; assay type: in vivo, Ambrosia artemisiifolia; conditions: 1000 g ai/ha, Postemergence; 0 to 100 scale
Method in brief: as §1

kochia [9] = experiment: Test A preemergence; assay type: in vivo, Bassia scoparia; conditions: 1000 g ai/ha, 0 to 100 scale (0 no effect, 100 complete control), 10 days
Method in brief: as §1

corn = experiment: Test A postemergence; assay type: in vivo, Zea mays; conditions: 1000 g ai/ha, Postemergence; 0 to 100 scale
Method in brief: as §1

barnyardgrass [10] = experiment: Test B flooded paddy test; assay type: in vivo, Echinochloa crus-galli; conditions: 250 g ai/ha, Flood, 13 days, 0 to 100 scale (0 no effect, 100 complete control)
Method in brief: as §2

sedge, umbrella = experiment: Test B flooded paddy test; assay type: in vivo, Cyperus difformis; conditions: 250 g ai/ha, Flood, 13 days, 0 to 100 scale (0 no effect, 100 complete control)
Method in brief: as §2

ryegrass, Italian [11] = experiment: Test A postemergence; assay type: in vivo, Lolium multiflorum; conditions: 1000 g ai/ha, Postemergence; 0 to 100 scale
Method in brief: as §1

barnyardgrass [12] = experiment: Test A preemergence; assay type: in vivo, Echinochloa crusgalli; conditions: 1000 g ai/ha, 0 to 100 scale (0 no effect, 100 complete control), 10 days
Method in brief: as §1

kochia [13] = experiment: Test A postemergence; assay type: in vivo, Bassia scoparia; conditions: 1000 g ai/ha, Postemergence; 0 to 100 scale
Method in brief: as §1

galium = experiment: Test A postemergence; assay type: in vivo, Galium aparine; conditions: 1000 g ai/ha, Postemergence; 0 to 100 scale
Method in brief: as §1

| Compound | Plant response rating, Blackgrass (blackgrass) | Plant response rating, Rice (rice) | Plant response rating, Pigweed, Redroot (Pigweed, Redroot [1]) | Plant response rating, Ryegrass, Italian (ryegrass, Italian [2]) | Plant response rating, Barnyardgrass (barnyardgrass [3]) | Plant response rating, Wheat (wheat) | Plant response rating, Ragweed (ragweed [4]) | Plant response rating, Pigweed, Redroot (Pigweed, Redroot [5]) | Plant response rating, Foxtail, Giant (foxtail, giant [6]) | Plant response rating, Foxtail, Giant (foxtail, giant [7]) | Plant response rating, Ducksalad (ducksalad) | Plant response rating, Ragweed (ragweed [8]) | Plant response rating, Kochia (kochia [9]) | Plant response rating, Corn (corn) | Plant response rating, Barnyardgrass (barnyardgrass [10]) | Plant response rating, Sedge, Umbrella (sedge, umbrella) | Plant response rating, Ryegrass, Italian (ryegrass, Italian [11]) | Plant response rating, Barnyardgrass (barnyardgrass [12]) | Plant response rating, Kochia (kochia [13]) | Plant response rating, Galium (galium) |
| --- | --- | --- | --- | --- | --- | --- | --- | --- | --- | --- | --- | --- | --- | --- | --- | --- | --- | --- | --- | --- |
| C#Cc1cccc2c1OC(C)CN2C(=O)c1cccc(-n2cncn2)c1 (stereo not shown) [Compound 30] | 70 | 0 | 30 | 100 | 20 | 40 | 0 | 100 | 80 | 40 | 0 | 0 | 20 | 10 | 0 | 0 | 70 | 30 | 10 | – |
| Cc1cccc2c1OC(C)CN2C(=O)c1cccc(-n2cncn2)c1 (stereo not shown) [Compound 21] | 80 | 0 | 60 | 100 | 90 | 70 | 70 | 100 | 100 | 90 | 65 | 40 | 70 | 90 | 0 | 35 | 80 | 100 | 40 | 80 |
| CC1CN(C(=O)c2cccc(-n3cncn3)c2)c2cccc(Br)c2O1 (stereo not shown) [Compound 25] | 90 | 0 | 40 | 100 | 50 | 70 | 0 | 100 | 100 | 90 | 35 | 0 | 30 | 70 | 0 | 0 | 90 | 90 | 50 | – |
| Cc1cccc2c1OC(C)CN2C(=O)c1ccc(C#N)c(-n2cncn2)c1 (stereo not shown) [Compound 29] | 70 | 0 | 50 | 90 | 70 | 60 | 0 | 60 | 100 | 90 | 0 | 0 | 20 | 80 | 0 | 0 | 50 | 90 | 10 | – |
| CCC1CN(C(=O)c2ccnc(-n3cncn3)c2)c2cccc(I)c2O1 (stereo not shown) [Compound 17] | 0 | – | 0 | 0 | 0 | 0 | 0 | 100 | 0 | 0 | – | 0 | 30 | 0 | – | – | 0 | 0 | 10 | 0 |
| C[C@H]1CN(C(=O)c2cccc(-n3cnnc3)c2)c2cccc(Cl)c2O1 [Compound 128] | 30 | – | 0 | 60 | 30 | 0 | 0 | 0 | 50 | 20 | – | 30 | 40 | 0 | – | – | 0 | 0 | 0 | 30 |
